Measurements from patent publication US9938274B1, “Naphthyridine compounds, medical combinations and use thereof” (Nanjing Natinefy Pharmatech Co., Ltd., priority 2016, dated 2018).

Columns and labels:
c-Met (h) = c-Met (h) (Homo sapiens (Human), UniProt P08581); test: HTRF KinEASE TK kinase inhibition assay, c-Met; format: biochemical
VEGFR-2 (h) = VEGFR-2 (h) (Homo sapiens (Human), UniProt P35968); test: HTRF KinEASE TK kinase inhibition assay, VEGFR-2; format: biochemical
U87MG tumor = test: Tumor xenograft model, U87MG, tumor growth inhibition; format: in vivo, nude mice (BALB/cA nu/nu); settings: 10 mg/kg p.o. QD, day 22
[1] = In vivo pharmacokinetic study in rats
Method: An In Vivo Pharmacokinetic Study in Rats
For intravenous injection, rats are given a dose of 1 mg/kg. For oral administration, rats are given a dose of 5 mg/kg. […] The whole blood is centrifuged at 8000 rpm for 5 min to collect plasma, which is then transferred to 96-well pallet, and stored at −20° C. till LC-MS/MS testing.
Pharmacokinetic parameters among rats after medication are estimated using the non-compartment model of software WinNonlin.
The peak concentration, Cmax: the actual measurements are used;

Sequence of VEGFR-2 (h) (P35968 20-1356): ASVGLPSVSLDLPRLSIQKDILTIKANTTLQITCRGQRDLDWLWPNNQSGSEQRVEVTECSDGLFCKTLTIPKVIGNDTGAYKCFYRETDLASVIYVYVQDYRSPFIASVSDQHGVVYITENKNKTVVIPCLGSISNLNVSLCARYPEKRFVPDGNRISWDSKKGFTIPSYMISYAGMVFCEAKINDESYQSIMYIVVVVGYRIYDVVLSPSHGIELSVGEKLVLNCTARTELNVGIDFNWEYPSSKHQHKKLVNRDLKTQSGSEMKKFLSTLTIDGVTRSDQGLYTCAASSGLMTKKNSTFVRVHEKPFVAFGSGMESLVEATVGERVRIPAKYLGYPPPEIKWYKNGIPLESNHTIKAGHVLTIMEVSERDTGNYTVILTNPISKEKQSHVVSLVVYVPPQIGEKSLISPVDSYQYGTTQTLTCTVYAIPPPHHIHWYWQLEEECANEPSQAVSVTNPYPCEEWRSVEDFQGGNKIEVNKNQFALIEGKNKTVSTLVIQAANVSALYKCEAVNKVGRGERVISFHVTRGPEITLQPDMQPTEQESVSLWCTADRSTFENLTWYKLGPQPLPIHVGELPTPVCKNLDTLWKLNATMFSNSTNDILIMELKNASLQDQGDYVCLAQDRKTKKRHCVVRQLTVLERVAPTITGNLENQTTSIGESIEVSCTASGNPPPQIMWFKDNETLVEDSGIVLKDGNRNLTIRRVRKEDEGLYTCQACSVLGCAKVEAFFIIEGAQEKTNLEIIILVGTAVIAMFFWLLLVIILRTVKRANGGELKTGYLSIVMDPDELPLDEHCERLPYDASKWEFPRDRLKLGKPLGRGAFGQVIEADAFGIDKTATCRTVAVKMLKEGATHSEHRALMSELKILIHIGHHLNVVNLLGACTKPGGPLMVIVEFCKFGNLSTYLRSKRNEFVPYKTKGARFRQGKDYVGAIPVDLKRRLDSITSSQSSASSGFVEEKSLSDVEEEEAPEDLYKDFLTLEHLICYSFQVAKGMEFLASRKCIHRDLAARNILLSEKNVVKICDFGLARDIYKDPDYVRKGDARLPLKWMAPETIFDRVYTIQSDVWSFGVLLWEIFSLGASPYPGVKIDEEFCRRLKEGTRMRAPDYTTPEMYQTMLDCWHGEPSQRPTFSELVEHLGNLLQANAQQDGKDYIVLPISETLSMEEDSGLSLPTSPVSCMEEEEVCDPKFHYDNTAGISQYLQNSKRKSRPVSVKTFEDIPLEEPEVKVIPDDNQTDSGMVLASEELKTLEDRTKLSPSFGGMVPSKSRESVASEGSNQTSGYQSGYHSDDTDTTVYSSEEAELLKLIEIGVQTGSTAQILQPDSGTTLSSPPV
Sequence of c-Met (h) (P08581 25-1390): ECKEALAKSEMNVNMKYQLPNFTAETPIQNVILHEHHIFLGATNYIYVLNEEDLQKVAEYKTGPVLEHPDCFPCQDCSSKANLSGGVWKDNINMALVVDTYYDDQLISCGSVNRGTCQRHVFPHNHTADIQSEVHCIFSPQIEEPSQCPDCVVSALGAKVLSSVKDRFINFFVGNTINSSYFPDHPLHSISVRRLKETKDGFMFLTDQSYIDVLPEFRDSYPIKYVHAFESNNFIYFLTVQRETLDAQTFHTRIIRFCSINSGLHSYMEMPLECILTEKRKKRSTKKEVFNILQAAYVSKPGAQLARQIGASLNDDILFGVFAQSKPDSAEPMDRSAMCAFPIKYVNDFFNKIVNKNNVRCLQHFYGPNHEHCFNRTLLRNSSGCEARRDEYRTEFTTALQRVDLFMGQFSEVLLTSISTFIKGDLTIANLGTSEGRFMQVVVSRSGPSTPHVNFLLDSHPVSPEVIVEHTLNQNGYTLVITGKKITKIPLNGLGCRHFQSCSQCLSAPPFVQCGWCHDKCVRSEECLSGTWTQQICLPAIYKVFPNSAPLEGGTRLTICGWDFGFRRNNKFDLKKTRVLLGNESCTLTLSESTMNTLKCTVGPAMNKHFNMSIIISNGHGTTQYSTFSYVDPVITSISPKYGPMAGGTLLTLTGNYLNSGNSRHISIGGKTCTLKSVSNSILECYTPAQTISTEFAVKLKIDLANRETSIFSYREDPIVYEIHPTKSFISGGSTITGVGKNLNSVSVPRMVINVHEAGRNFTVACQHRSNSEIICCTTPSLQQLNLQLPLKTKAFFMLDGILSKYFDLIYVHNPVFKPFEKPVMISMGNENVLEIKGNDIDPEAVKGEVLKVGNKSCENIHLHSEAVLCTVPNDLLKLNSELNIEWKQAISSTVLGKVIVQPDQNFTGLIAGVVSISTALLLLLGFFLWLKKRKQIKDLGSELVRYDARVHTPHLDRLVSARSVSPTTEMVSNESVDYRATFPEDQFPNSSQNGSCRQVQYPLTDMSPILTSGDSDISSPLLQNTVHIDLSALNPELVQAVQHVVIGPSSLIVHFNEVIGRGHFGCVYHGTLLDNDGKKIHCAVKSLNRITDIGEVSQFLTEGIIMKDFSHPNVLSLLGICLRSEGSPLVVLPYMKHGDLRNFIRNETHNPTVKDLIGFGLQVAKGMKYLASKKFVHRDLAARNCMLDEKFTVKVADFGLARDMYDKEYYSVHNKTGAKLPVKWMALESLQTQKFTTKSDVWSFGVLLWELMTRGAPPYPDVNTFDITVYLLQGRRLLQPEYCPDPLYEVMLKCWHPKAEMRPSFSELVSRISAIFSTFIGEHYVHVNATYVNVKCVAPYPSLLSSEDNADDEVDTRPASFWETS

Row | SMILES | IC50 (c-Met (h)) | IC50 (VEGFR-2 (h)) | further results
1 | COc1cc2c(Oc3ccc(Nc4nccc5[nH]cc(-c6ccccc6)c(=O)c45)cc3F)ccnc2cc1OCC(C)(C)O [Example 3, 5-((3-fluoro-4-((7-(2-hydroxy-2-methylpropoxy)-6-methoxyquinolin-4-yl)oxy)-phenyl)amino)-3-phenyl-1,6-naphthyridin-4(1H)-one] | 20.1 nM |  | 
2 | CC(C)n1cc(-c2ccc(F)cc2)c(=O)c2c(Nc3ccc(Oc4ccnc5cc(OCC(C)(C)O)ccc45)c(F)c3)nccc21 [Example 13, 5-((3-fluoro-4-((7-(2-hydroxy-2-methylpropoxy)quinolin-4-yl)oxy)phenyl)amino)-3-(4-fluorophenyl)-1-isopropyl-1,6-naphthyridin-4(1H)-one] | 9 nM | > 5000 nM | 
3 | COC(C)(C)COc1ccc2c(Oc3ccc(Nc4nccc5[nH]cc(-c6ccc(F)cc6)c(=O)c45)cc3F)ccnc2c1 [Comparative compound D, reference compound] |  | 60 nM | 
4 | CC(C)(O)COc1ccc2c(Oc3ccc(Nc4nccc5c4c(=O)c(-c4ccc(F)cc4)cn5Cc4ccccc4)cc3F)ccnc2c1 [Example 18, 1-benzyl-5-((3-fluoro-4-((7-(2-hydroxy-2-methylpropoxy)quinolin-4-yl)oxy)phenyl)-amino)-3-(4-fluorophenyl)-1,6-naphthyridin-4(1H)-one] | 40.3 nM | > 5000 nM | 
5 | CC(C)(O)COc1ccc2c(Oc3ccc(Nc4nccc5c4c(=O)c(-c4ccc(F)cc4)cn5C4CC4)cc3F)ccnc2c1 [Example 14, 1-cyclopropyl-5-((3-fluoro-4-((7-(2-hydroxy-2-methylpropoxy)quinolin-4-yl)oxy)-phenyl)amino)-3-(4-fluorophenyl)-1,6-naphthyridin-4(1H)-one] | 14.3 nM | > 5000 nM | 
6 | CCn1cc(-c2ccc(F)cc2)c(=O)c2c(Nc3ccc(Oc4ccnc5cc(OCC(C)(C)O)ccc45)c(F)c3)nccc21 [Example 11, 1-ethyl-5-((3-fluoro-4-((7-(2-hydroxy-2-methylpropoxy)quinolin-4-yl)oxy)phenyl)-amino)-3-(4-fluorophenyl)-1,6-naphthyridin-4(1H)-one] | 9.5 nM | > 5000 nM | 
7 | COc1ccc2c(Oc3ccc(Nc4nccc5[nH]cc(-c6ccc(F)cc6)c(=O)c45)cc3F)ccnc2c1 [Comparative compound A, reference compound] |  |  | Tumor growth inhibition rate, % TGI (U87MG tumor): 55.3%
8 | CC(C)(O)COc1ccc2c(Oc3ccc(Nc4nccc5[nH]cc(-c6cccc(F)c6)c(=O)c45)cc3F)ccnc2c1 [Example 6, 5-((3-fluoro-4-((7-(2-hydroxy-2-methylpropoxy)quinolin-4-yl)oxy)phenyl)amino)-3-(3-fluorophenyl)-1,6-naphthyridin-4(1H)-one] | 7.9 nM |  | 
9 | CC(C)(O)COc1ccc2c(Oc3ccc(Nc4nccc5c4c(=O)c(-c4ccc(F)cc4)cn5CCO)cc3F)ccnc2c1 [Example 17, 5-((3-fluoro-4-((7-(2-hydroxy-2-methylpropoxy)quinolin-4-yl)oxy)phenyl)amino)-3-(4-fluorophenyl)-1-(2-hydroxyethyl)-1,6-naphthyridin-4(1H)-one] | 40 nM | > 5000 nM | 
10 | COc1cc2nccc(Oc3ccc(Nc4nccc5[nH]cc(-c6ccccc6)c(=O)c45)cc3F)c2cc1OCC(C)(C)O [Example 9, 5-((3-fluoro-4-((6-(2-hydroxy-2-methylpropoxy)-7-methoxyquinolin-4-yl)oxy)-phenyl)amino)-3-phenyl-1,6-naphthyridin-4(1H)-one] | 13.3 nM |  | 
11 | CCCn1cc(-c2ccc(F)cc2)c(=O)c2c(Nc3ccc(Oc4ccnc5cc(OCC(C)(C)O)ccc45)c(F)c3)nccc21 [Example 12, 5-((3-fluoro-4-((7-(2-hydroxy-2-methylpropoxy)quinolin-4-yl)oxy)phenyl)amino)-3-(4-fluorophenyl)-1-propyl-1,6-naphthyridin-4(1H)-one] | 7.2 nM | > 5000 nM | 
12 | COc1cc2c(Oc3ccc(Nc4nccc5[nH]cc(-c6ccc(F)cc6)c(=O)c45)cc3F)ccnc2cc1OCC(C)(C)O [Example 1, 5-((3-fluoro-4-((7-(2-hydroxy-2-methylpropoxy)-6-methoxyquinolin-4-yl)oxy)-phenyl)amino)-3-(4-fluorophenyl)-1,6-naphthyridin-4(1H)-one] | 19.4 nM |  | 
13 | Cn1cc(-c2ccc(F)cc2)c(=O)c2c(Nc3ccc(Oc4ccnc5cc(OCC(C)(C)O)ccc45)c(F)c3)nccc21 [Example 10, 5-((3-fluoro-4-((7-(2-hydroxy-2-methylpropoxy)quinolin-4-yl)oxy)phenyl)amino)-3-(4-fluorophenyl)-1-methyl-1,6-naphthyridin-4(1H)-one] | 12.7 nM | > 5000 nM | 
14 | CC(C)(O)COc1ccc2c(Oc3ccc(Nc4nccc5c4c(=O)c(-c4ccc(F)cc4)cn5CC4CO4)cc3F)ccnc2c1 (centres unmarked) [Example 15, 5-((3-fluoro-4-((7-(2-hydroxy-2-methylpropoxy)quinolin-4-yl)oxy)phenyl)amino)-3-(4-fluorophenyl)-1-(oxiran-2-ylmethyl)-1,6-naphthyridin-4(1H)-one] | 22.4 nM | > 5000 nM | 
15 | CC(C)(O)COc1ccc2c(Oc3ccc(Nc4nccc5[nH]cc(-c6ccccc6F)c(=O)c45)cc3F)ccnc2c1 [Example 5, 5-((3-fluoro-4-((7-(2-hydroxy-2-methylpropoxy)quinolin-4-yl)oxy)phenyl)amino)-3-(2-fluorophenyl)-1,6-naphthyridin-4(1H)-one] | 9.4 nM |  | 
16 | COc1cc2nccc(Oc3ccc(Nc4nccc5[nH]cc(-c6ccc(F)cc6)c(=O)c45)cc3F)c2cc1OCC(C)(C)O [Example 8, 5-((3-fluoro-4-((6-(2-hydroxy-2-methylpropoxy)-7-methoxyquinolin-4-yl)oxy)-phenyl)amino)-3-(4-fluorophenyl)-1,6-naphthyridin-4(1H)-one] | 16.8 nM |  | 
17 | COCCn1cc(-c2ccc(F)cc2)c(=O)c2c(Nc3ccc(Oc4ccnc5cc(OCC(C)(C)O)ccc45)c(F)c3)nccc21 [Example 16, 5-((3-fluoro-4-((7-(2-hydroxy-2-methylpropoxy)quinolin-4-yl)oxy)phenyl)amino)-3-(4-fluorophenyl)-1-(2-methoxyethyl)-1,6-naphthyridin-4(1H)-one] | 14.4 nM | > 5000 nM | 
18 | COc1cc2c(Oc3ccc(Nc4nccc5[nH]cc(-c6ccc(F)cc6)c(=O)c45)cc3F)ccnc2cc1OCC(C)O (centres unmarked) [Example 2, 5-((3-fluoro-4-((7-(2-hydroxypropoxy)-6-methoxyquinolin-4-yl)oxy)phenyl)-amino)-3-(4-fluorophenyl)-1,6-naphthyridin-4(1H)-one] | 15.6 nM |  | 
19 | O=c1c(-c2ccc(F)cc2)c[nH]c2ccnc(Nc3ccc(Oc4ccnc5cc(OCCO)ccc45)c(F)c3)c12 [Comparative compound C, reference compound] |  |  | CL ([1]; 5 mg/kg i.g.): 31.7 mL/min/kg; Vz ([1]; 5 mg/kg i.g.): 7.89 L/kg; AUC(0-t) ([1]; rat, plasma, iv, 1 mg/kg i.v.): 2290 ng·h/mL; Cmax ([1]; rat, plasma, iv, 1 mg/kg i.v.): 970 ng/mL; clearance ([1]; rat, plasma, iv, 1 mg/kg i.v.): 4.83 mL/min/kg; half-life ([1]; rat, plasma, iv, 1 mg/kg i.v.): 2.35 h; Vd ([1]; rat, plasma, iv, 1 mg/kg i.v., read-out: Vz): 1.21 L/kg; bioavailability ([1]; rat, plasma, oral, 5 mg/kg i.g. vs 1 mg/kg i.v., read-out: F (absolute bioavailability)): 16.2%; AUC(0-t) ([1]; rat, plasma, po, 5 mg/kg i.g.): 1850 ng·h/mL; Cmax ([1]; rat, plasma, po, 5 mg/kg i.g.): 530 ng/mL; half-life ([1]; rat, plasma, po, 5 mg/kg i.g.): 2.14 h
